Assay results: ChEMBL document CHEMBL1136471, “Fluorescence resonance energy transfer in a novel cyclodextrin-peptide conjugate for detecting steroid molecules” (Bioorg Med Chem Lett, 2003)

Columns and labels:
[1] = Sensitivity value towards cyclodextrin conjugated peptide (with pyrene) at 25 degrees Centigrade; design: concentration or dose not given beside the values
[2] = Binding constant towards cyclodextrin conjugated peptide (with pyrene) at 25 degrees Centigrade

| Compound | Change in sensitivity [1] | Activity [2] |
| --- | --- | --- |
| C[C@H](CCC(=O)O)[C@H]1CC[C@H]2[C@@H]3CC[C@@H]4C[C@H](O)CCC4(C)[C@H]3C[C@H](O)[C@]12C (single isomer, unassigned) | 0.01 | 1100 Kb M-1 |
| C[C@H](CCC(=O)O)[C@H]1CC[C@H]2[C@@H]3[C@H](O)C[C@@H]4C[C@H](O)CC[C@]4(C)[C@H]3C[C@H](O)[C@]12C | 0.008 | 900 Kb M-1 |
| C[C@H](CCC(=O)O)[C@H]1CC[C@H]2[C@@H]3C[C@H](O)[C@@H]4C[C@H](O)CC[C@]4(C)[C@H]3CC[C@]12C | 0.4 | 210000 Kb M-1 |
| C[C@H](CCC(=O)O)[C@H]1CC[C@H]2[C@@H]3[C@@H](O)C[C@@H]4C[C@H](O)CC[C@]4(C)[C@H]3CC[C@]12C | 0.4 | 173000 Kb M-1 |
| C[C@H](CCC(=O)O)[C@H]1CC[C@H]2[C@@H]3CC[C@@H]4C[C@H](O)CC[C@]4(C)[C@H]3CC[C@]12C | 0.45 | 439000 Kb M-1 |
| C[C@H](CCC(=O)O)[C@H]1CC[C@H]2[C@@H]3[C@H](O)C[C@@H]4C[C@H](O)CC[C@]4(C)[C@H]3CC[C@]12C | 0.16 | 33300 Kb M-1 |
